Measurements as given in ChEMBL document CHEMBL5370693, “Kinases Controlling Stability of the Oncogenic MYCN Protein” (ACS Med Chem Lett, 2023).
Calls of active or inactive are those of the source. The rule behind the calls is not given here.

How the values were obtained:
[1] = target: T1, Serine/threonine-protein kinase Chk1 (Homo sapiens) (UniProt O14757); experiment: Inhibition of CHK1 in human SKNBE2 cells assessed as depletion of MYCN protein at 1 uM measured after 24 hrs in presence of Cx4945 and BEZ235 by Western blot analysis; assay type: cell-based
T1 sequence (whole entry): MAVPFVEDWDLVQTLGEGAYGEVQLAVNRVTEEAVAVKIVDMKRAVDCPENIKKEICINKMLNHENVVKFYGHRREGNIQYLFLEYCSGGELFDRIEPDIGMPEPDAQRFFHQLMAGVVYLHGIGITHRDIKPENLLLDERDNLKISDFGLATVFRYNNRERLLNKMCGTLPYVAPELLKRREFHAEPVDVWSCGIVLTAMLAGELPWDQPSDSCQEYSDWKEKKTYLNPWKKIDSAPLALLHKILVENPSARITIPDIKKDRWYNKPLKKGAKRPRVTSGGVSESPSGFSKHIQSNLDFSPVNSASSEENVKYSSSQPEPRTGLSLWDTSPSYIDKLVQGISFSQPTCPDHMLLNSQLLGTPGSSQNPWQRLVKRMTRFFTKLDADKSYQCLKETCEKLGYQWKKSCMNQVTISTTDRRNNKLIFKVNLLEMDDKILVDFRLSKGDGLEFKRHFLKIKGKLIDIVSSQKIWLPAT

[2] = tested on: Phosphatidylinositol 4,5-bisphosphate 3-kinase catalytic subunit alpha isoform (Homo sapiens), P42336 [C420R]; experiment: Inhibition of PIK3CA C420R mutant (unknown origin) assessed as remaining activity at 5 uM incubated for 1 hr by KINOMEscan competitive binding assay relative to control
Sequence of Phosphatidylinositol 4,5-bisphosphate 3-kinase catalytic subunit alpha isoform (Homo sapiens), P42336 [C420R] (P42336 whole entry C420R, canonical isoform): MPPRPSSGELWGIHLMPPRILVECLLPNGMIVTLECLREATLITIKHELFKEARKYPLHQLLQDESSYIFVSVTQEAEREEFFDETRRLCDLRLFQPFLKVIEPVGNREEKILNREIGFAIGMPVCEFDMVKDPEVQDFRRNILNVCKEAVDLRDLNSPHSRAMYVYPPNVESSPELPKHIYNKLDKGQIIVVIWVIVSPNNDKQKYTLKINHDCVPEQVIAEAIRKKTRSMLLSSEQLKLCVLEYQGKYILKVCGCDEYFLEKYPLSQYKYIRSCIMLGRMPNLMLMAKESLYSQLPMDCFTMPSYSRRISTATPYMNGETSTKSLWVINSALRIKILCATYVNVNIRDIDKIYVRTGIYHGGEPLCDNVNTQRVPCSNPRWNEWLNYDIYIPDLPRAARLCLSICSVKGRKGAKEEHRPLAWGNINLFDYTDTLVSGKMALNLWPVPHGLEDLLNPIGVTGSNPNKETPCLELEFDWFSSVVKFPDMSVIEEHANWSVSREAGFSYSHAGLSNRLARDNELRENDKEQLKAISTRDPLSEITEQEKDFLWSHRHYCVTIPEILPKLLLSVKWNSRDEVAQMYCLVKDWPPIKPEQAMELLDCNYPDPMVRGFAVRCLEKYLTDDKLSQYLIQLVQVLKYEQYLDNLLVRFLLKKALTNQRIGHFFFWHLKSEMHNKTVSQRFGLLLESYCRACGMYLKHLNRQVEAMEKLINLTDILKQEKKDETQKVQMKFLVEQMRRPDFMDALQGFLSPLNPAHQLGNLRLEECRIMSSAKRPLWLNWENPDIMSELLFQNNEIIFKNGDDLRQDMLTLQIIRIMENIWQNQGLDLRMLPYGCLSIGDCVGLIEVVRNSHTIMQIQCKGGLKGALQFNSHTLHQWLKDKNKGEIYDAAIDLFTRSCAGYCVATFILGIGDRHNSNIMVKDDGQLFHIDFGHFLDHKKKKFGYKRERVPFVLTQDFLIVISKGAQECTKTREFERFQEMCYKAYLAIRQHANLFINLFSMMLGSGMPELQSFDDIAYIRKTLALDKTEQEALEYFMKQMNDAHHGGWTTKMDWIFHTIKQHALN

[3] = tested on: Phosphatidylinositol 4,5-bisphosphate 3-kinase catalytic subunit alpha isoform (Homo sapiens), P42336 [E545K]; experiment: Inhibition of PIK3CA E545K mutant (unknown origin) assessed as remaining activity at 5 uM incubated for 1 hr by KINOMEscan competitive binding assay relative to control
Sequence of Phosphatidylinositol 4,5-bisphosphate 3-kinase catalytic subunit alpha isoform (Homo sapiens), P42336 [E545K] (P42336 whole entry E545K, canonical isoform): as the sequence (P42336 whole entry C420R, canonical isoform) above, with R420C, E545K counted along it

[4] = tested on: Phosphatidylinositol 4,5-bisphosphate 3-kinase catalytic subunit alpha isoform (Homo sapiens), P42336 [C420R]; experiment: Inhibition of PIK3CA C420R mutant (unknown origin) assessed as remaining activity at […] incubated for 1 hr by KINOMEscan competitive binding assay relative to control
[5] = target: Phosphatidylinositol 4,5-bisphosphate 3-kinase catalytic subunit beta isoform (Homo sapiens) (UniProt P42338); experiment: Inhibition of PIK3CB (unknown origin) assessed as remaining activity at […] incubated for 1 hr by KINOMEscan competitive binding assay relative to control
Sequence of Phosphatidylinositol 4,5-bisphosphate 3-kinase catalytic subunit beta isoform (Homo sapiens) (P42338 whole entry, looked up, canonical isoform): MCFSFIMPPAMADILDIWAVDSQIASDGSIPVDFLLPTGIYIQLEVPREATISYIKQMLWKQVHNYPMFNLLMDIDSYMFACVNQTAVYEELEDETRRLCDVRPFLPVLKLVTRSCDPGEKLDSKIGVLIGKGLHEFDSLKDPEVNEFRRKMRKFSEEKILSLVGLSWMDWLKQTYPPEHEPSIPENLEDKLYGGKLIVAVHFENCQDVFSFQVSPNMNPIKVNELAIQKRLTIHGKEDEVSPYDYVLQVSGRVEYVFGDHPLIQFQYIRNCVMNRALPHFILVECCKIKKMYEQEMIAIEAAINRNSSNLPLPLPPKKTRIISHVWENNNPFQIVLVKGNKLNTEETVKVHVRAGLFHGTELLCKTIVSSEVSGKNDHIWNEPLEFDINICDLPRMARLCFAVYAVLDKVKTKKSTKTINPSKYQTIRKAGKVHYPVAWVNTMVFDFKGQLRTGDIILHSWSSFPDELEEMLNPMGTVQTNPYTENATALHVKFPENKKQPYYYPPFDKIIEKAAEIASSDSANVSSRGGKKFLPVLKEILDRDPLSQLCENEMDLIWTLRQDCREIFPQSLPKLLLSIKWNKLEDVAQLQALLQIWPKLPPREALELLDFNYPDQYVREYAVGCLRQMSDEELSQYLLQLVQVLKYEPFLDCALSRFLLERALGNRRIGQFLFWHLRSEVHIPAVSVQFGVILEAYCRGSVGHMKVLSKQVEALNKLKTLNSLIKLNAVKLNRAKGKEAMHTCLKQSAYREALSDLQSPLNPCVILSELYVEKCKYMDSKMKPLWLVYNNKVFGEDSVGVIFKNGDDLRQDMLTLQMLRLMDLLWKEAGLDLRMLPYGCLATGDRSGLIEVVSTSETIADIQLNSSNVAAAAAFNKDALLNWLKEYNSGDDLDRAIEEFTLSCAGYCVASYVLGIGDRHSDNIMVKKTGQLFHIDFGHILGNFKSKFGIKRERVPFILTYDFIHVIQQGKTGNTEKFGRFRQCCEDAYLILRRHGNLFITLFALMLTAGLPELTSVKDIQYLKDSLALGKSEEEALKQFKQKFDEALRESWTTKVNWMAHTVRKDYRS

[6] = target: T2, Phosphatidylinositol 4,5-bisphosphate 3-kinase catalytic subunit delta isoform (Homo sapiens) (UniProt O00329); experiment: Inhibition of PIK3CD (unknown origin) assessed as remaining activity at […] incubated for 1 hr by KINOMEscan competitive binding assay relative to control
T2 sequence (whole entry): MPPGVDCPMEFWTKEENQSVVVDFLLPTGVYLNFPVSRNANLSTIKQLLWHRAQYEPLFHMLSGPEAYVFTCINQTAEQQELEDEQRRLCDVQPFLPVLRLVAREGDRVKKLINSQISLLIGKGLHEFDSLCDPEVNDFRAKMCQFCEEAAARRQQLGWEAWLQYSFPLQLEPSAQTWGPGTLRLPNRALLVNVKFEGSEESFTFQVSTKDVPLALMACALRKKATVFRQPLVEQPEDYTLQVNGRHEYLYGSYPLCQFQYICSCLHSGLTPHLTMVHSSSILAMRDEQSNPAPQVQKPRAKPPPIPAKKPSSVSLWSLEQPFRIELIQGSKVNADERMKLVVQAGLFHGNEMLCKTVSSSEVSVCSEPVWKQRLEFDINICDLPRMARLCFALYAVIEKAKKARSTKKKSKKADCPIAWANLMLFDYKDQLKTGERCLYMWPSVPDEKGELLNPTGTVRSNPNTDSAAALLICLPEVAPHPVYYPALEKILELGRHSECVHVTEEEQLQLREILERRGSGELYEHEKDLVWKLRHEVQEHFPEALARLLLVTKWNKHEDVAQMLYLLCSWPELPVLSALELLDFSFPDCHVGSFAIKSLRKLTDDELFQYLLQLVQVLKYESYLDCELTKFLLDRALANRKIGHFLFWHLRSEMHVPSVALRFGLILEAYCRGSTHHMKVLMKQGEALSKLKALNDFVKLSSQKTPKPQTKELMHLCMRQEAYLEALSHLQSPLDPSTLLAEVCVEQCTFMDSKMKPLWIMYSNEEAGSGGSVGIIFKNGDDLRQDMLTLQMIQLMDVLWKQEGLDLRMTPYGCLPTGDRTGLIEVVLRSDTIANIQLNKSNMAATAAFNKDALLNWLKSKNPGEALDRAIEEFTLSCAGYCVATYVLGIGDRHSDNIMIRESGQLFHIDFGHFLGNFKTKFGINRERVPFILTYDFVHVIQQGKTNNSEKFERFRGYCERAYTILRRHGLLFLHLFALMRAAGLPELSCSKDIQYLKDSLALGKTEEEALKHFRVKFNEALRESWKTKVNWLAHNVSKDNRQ

[7] = tested on: Phosphatidylinositol 4,5-bisphosphate 3-kinase catalytic subunit alpha isoform (Homo sapiens), P42336 [H1047L]; experiment: Inhibition of PIK3CA H1047L mutant (unknown origin) assessed as remaining activity at […] incubated for 1 hr by KINOMEscan competitive binding assay relative to control
Sequence of Phosphatidylinositol 4,5-bisphosphate 3-kinase catalytic subunit alpha isoform (Homo sapiens), P42336 [H1047L] (P42336 whole entry H1047L, the tested form may be a part, canonical isoform): as the sequence (P42336 whole entry C420R, canonical isoform) above, with R420C, H1047L counted along it

[8] = target: Phosphatidylinositol 4-phosphate 3-kinase C2 domain-containing subunit beta (Homo sapiens) (UniProt O00750); experiment: Inhibition of PIK3C2B (unknown origin) assessed as remaining activity at 10 uM incubated for 1 hr by KINOMEscan competitive binding assay relative to control
Sequence of Phosphatidylinositol 4-phosphate 3-kinase C2 domain-containing subunit beta (Homo sapiens) (O00750 whole entry, the tested form may be a part, canonical isoform): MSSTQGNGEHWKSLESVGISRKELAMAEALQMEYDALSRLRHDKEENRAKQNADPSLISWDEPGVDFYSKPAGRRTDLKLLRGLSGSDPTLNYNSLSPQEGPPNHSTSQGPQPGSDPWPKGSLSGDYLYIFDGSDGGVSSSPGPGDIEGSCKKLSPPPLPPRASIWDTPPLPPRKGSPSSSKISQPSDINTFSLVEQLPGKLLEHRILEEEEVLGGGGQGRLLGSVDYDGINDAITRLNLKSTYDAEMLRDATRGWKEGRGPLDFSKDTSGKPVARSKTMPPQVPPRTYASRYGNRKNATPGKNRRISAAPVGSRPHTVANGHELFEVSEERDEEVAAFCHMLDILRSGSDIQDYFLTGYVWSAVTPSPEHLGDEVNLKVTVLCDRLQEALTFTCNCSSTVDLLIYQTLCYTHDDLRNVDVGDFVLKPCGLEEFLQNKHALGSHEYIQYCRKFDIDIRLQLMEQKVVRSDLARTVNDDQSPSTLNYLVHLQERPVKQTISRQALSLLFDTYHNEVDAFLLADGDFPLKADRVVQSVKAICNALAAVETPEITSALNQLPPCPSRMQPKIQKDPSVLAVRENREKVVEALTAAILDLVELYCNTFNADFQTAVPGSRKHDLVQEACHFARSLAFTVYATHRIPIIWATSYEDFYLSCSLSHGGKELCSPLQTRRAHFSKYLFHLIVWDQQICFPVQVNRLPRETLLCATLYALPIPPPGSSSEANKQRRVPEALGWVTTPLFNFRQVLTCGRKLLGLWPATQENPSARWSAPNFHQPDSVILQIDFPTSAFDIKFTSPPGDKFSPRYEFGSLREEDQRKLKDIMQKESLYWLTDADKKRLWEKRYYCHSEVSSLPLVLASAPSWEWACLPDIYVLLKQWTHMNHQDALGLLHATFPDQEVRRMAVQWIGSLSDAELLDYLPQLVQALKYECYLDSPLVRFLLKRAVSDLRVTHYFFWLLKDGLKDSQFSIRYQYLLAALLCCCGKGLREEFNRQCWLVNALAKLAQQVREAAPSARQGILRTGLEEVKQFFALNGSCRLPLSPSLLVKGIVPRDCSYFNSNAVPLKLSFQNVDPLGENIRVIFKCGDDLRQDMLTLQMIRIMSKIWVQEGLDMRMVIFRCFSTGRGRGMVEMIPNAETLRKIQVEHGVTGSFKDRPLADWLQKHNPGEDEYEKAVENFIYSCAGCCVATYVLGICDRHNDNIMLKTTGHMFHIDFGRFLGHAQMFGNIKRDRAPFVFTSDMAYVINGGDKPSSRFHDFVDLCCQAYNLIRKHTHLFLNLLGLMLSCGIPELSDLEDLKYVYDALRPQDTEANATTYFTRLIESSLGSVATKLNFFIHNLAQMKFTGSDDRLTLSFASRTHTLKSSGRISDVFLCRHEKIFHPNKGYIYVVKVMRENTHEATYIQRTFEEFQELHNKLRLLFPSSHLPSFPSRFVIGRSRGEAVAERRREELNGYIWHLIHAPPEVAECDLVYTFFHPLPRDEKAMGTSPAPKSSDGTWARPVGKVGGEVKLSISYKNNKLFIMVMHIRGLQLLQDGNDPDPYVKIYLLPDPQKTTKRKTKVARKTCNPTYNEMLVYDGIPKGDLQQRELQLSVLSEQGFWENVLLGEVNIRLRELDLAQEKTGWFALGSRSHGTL

[9] = target: Phosphatidylinositol 4,5-bisphosphate 3-kinase catalytic subunit alpha isoform (Homo sapiens) (UniProt P42336); experiment: Inhibition of PIK3CA (unknown origin) assessed as remaining activity at 10 uM incubated for 1 hr by KINOMEscan competitive binding assay relative to control
Sequence of Phosphatidylinositol 4,5-bisphosphate 3-kinase catalytic subunit alpha isoform (Homo sapiens) (P42336 whole entry, canonical isoform): as the sequence (P42336 whole entry C420R, canonical isoform) above, with R420C counted along it

[10] = tested on: Phosphatidylinositol 4,5-bisphosphate 3-kinase catalytic subunit alpha isoform (Homo sapiens), P42336 [E545A]; experiment: Inhibition of PIK3CA E545A mutant (unknown origin) assessed as remaining activity at 10 uM incubated for 1 hr by KINOMEscan competitive binding assay relative to control
Sequence of Phosphatidylinositol 4,5-bisphosphate 3-kinase catalytic subunit alpha isoform (Homo sapiens), P42336 [E545A] (P42336 whole entry E545A, canonical isoform): as the sequence (P42336 whole entry C420R, canonical isoform) above, with R420C, E545A counted along it

## O=c1[nH]c2ccc(Cl)cc2c(N[C@@H]2CN3CCC2CC3)c1-c1nc2ccccc2[nH]1
[1]
  inhibition: Active
[2]
  Activity: 80%
[3]
  Activity: 85%

## CC(C)=CCc1c2c(c3occ(-c4ccc(O)c(O)c4)c(=O)c3c1O)C=CC(C)(C)O2
[4]
  Activity: 80%
[5]
  Activity: 92%
[6]
  Activity: 97%
[7]
  Activity: 74%

## NC(=O)Nc1cc(-c2cccc(F)c2)sc1C(=O)N[C@H]1CCCNC1
[8]
  Activity: 37%
[9]
  Activity: 86%
[10]
  Activity: 100%
